# Data from patent US7538116B2, “Treatment of sexual disorders” (priority 2003, dated 2009).
# Tests used:
# Assay type in all cases: in vivo, human
# subjects with depression = experiment: DISF interview, short-term investigation in depression (134004); details: trial 134004; for mean change from baseline in total score (DISF interview): short-term treatment
# Experimental: (§1) Sexual dysfunction and recovery were measured with the Derogatis Interview for Sexual Functioning (DISF/DISF-SR). This provides for a coordinated set of brief matched instruments designed to provide an estimate of the quality of an individual's current sexual functioning. The DISF is a semi-structured interview comprising 25 items and reflecting quality of sexual functioning in a multi-domain format. The DISF-SR is a matching Self-Report (SR) inventory designed to accomplish the same goal in a patient self-report mode. There are gender specific male and female versions of both the DISF and the DISF-SR. All instruments in the DISF series are designed to be interpreted at three distinct levels: Discrete Items, Functional Domains, and aggregate summary (Total Score). The Discrete Items are arranged into five primary Functional Domains of sexual functioning: (I) sexual cognition/fantasy, (II) sexual arousal, (III) sexual behavior/experience, (IV) orgasm, and (V) sexual drive/relationship. Both the DISF and the DISF-SR take approximately 12 to 15 minutes to administer. Internal consistency reliabilities for domain scores of the DISF-SR range from 0.70 to 0.77, while test-retest stability coefficients are 0.80 to 0.90 and 0.86 for the Total Score. Inter-rater reliability estimates for the DISF interview ranged from 0.84 to 0.92 for domain scores, and 0.91 for the Total. […] The DISF/DISF-SR is currently available in 10 foreign languages.
# (§2) The Derogatis Interview was used, providing information on the quality of the subject's sexual functioning in quantitative terms. Only subjects who were willing to discuss their sexual functioning with the investigator were to be included. In addition, the scores from the interview, as well as demographic and medical history information, were to be used by the investigator to determine whether or not the subject reached the threshold of disorder (absent or present) for the primary criteria for the DSM-IV Sexual Disorders.
# DISF interview data from the analysis of another investigation of gepirone in depression (Organon internal reference number: 134004) were analyzed. […] Upon analysis of change from baseline in total score only for each domain for females and Domains I to III for males, similar conclusions for subjects who received gepirone and fluoxetine could be drawn.
# [1] = test system: subjects from trial 134004; experiment: DISF interview, long-term trial 134502 (continued or switched therapy)
# Experimental: as §1, §2
# In another study (Organon's Internal reference number 134501), all subjects received gepirone ER (40 mg) after having completed a trial wherein subjects were randomized to receive either gepirone ER or placebo. DISF-SR data from the analysis of this long-term trial were analyzed. For females, data were available for 23 subjects who received gepirone in a previous trial (Organon internal reference: 134001 or 134002) previously (henceforth referred to as gepirone in this paragraph) and 23 subjects who received placebo previously (henceforth referred to as placebo in this paragraph). […] For males, data were available for 17 subjects who received gepirone and 17 subjects who received placebo. […] DISF Interview data from the analysis of another long-term trial (Organon internal reference: 134502) were analyzed. In this trial subjects from a previous trial (Organon internal reference:134004) were continued on therapy or were switched to a new drug, depending on antidepressant response.
# depressed patients = experiment: Specific case descriptions, long-term open-label study
# Excerpt: In another trial patients were enrolled in a long-term open-label study of depressed patients. […] It was observed that most of the reports were from patients in long-term therapy who had recovered from their depression weeks to months before making the reports. These reports provided incidental observations on both men and women of various ages that sexual desire had increased to a level not previously experienced by the subject and which was quite pleasing to them. It appeared that these patients were no longer depressed and now had the added benefit that sexual function, sexual relationships, and quality of life were improved beyond that experienced by patients merely recovering from depression. […] They were pursuing a dating life for the first time in years. […] They were not depressed anymore and the sexual effects continued to increase. […] They were successful and carried out a satisfying sexual relationship for the fist time since the death of their spouse. They were reported to be “giddy” over the effects of gepirone in this domain. Their quality of life was judged as much improved by the investigator.
# [2] = test system: subjects from trials 134001 or 134002; experiment: DISF-SR, long-term trial 134501 (all subjects on gepirone ER); details: then gepirone ER 40 mg
# Experimental: as §1, §2
# In another study (Organon's Internal reference number 134501), all subjects received gepirone ER (40 mg) after having completed a trial wherein subjects were randomized to receive either gepirone ER or placebo. DISF-SR data from the analysis of this long-term trial were analyzed. For females, data were available for 23 subjects who received gepirone in a previous trial (Organon internal reference: 134001 or 134002) previously (henceforth referred to as gepirone in this paragraph) and 23 subjects who received placebo previously (henceforth referred to as placebo in this paragraph). […] DISF Interview data from the analysis of another long-term trial (Organon internal reference: 134502) were analyzed. […]
# depressed outpatients = experiment: DISF-SR, combined analysis of two short-term investigations (134001 and 134002); details: short-term treatment (2 months), 134001 and 134002 combined
# Experimental: Sexual dysfunction and recovery were measured with the Derogatis Interview for Sexual Functioning (DISF/DISF-SR). This provides for a coordinated set of brief matched instruments designed to provide an estimate of the quality of an individual's current sexual functioning. The DISF is a semi-structured interview comprising 25 items and reflecting quality of sexual functioning in a multi-domain format. The DISF-SR is a matching Self-Report (SR) inventory designed to accomplish the same goal in a patient self-report mode. There are gender specific male and female versions of both the DISF and the DISF-SR. All instruments in the DISF series are designed to be interpreted at three distinct levels: Discrete Items, Functional Domains, and aggregate summary (Total Score). The Discrete Items are arranged into five primary Functional Domains of sexual functioning: (I) sexual cognition/fantasy, (II) sexual arousal, (III) sexual behavior/experience, (IV) orgasm, and (V) sexual drive/relationship. Both the DISF and the DISF-SR take approximately 12 to 15 minutes to administer. […]
# The Derogatis Interview was used, providing information on the quality of the subject's sexual functioning in quantitative terms. […]
# DISF-SR data from the combined analysis of two investigations of gepirone in depressed outpatients (Organon internal reference: 134001 and 134002) were analyzed. […]
# [3] = test system: subjects in remission from depression; experiment: DISF total score, longer-term trial 28709 (randomized after remission); details: for mean change from baseline in total score (DISF): gepirone HCl ER 40 mg, randomized after remission
# Experimental: as §1
# as §2, with “Disorders. […]” for “Disorders.”
# [4] = males, same treatment throughout short-term (134004) and long-term (134502) trials
structure (smiles),measurement,setting,value
"CC1(C)CC(=O)N(CCCCN2CCN(c3ncccn3)CC2)C(=O)C1 [gepirone, 4,4-dimethyl-1-[4-[4-(2-pyrimidinyl)-1-piperazinyl]butyl]-2,6-piperidinedione]",mean change from baseline in total score (DISF interview),subjects with depression; females,+4.3
same,mean change from baseline in total score (DISF interview),subjects with depression; males,0
same,change from baseline in total score for Domains IV (orgasm) and V (sexual drive/relationship),subjects with depression; males,improvement in total score from baseline
same,mean change from baseline in total score (DISF interview),"[1]; females, same treatment throughout short-term (134004) and long-term (134502) trials",+18.1
same,mean change from baseline in total score (DISF interview),"[1]; females, switched from fluoxetine to gepirone, trial 134502",+2.3
same,mean change from baseline in total score (DISF interview),"[1]; females, switched from placebo to gepirone, trial 134502",+4.2
same,mean change from baseline in total score (DISF interview),[1]; [4],+5.5
same,mean change from baseline in total score (DISF interview),"[1]; males, switched from fluoxetine to gepirone, trial 134502",+3.3
same,mean change from baseline in total score (DISF interview),"[1]; males, switched from placebo to gepirone, trial 134502",+7.1
same,quality of life judged by the investigator (case report),depressed patients; patient,much improved
same,orgasms (case report),"depressed patients; person on open-label therapy, no longer depressed",more frequent and more intense
same,libido (case report),"depressed patients; person, on gepirone for nearly a year",libido was up
same,mean change from baseline in total score (DISF-SR),"[2]; females, gepirone in previous trial",+11.2
same,mean change from baseline in total score (DISF-SR),"[2]; females, placebo in previous trial",+3.3
same,mean change from baseline in total score (DISF-SR),"[2]; males, gepirone in previous trial",+12.3
same,mean change from baseline in total score (DISF-SR),"[2]; males, placebo in previous trial",−4.4
same,mean change from baseline in total score (DISF-SR),depressed outpatients; females,+8.0
same,mean change from baseline in total score (DISF-SR),depressed outpatients; males,+13.7
same,mean change from baseline in total score (DISF),[3]; females,+5.2
same,"Domains IV (orgasm) and V (sexual drive/relationship), total score from baseline",[3]; males,improvement in total score from baseline
same,mean change from baseline in total score (DISF),[3]; males,+18.7
CNCCC(Oc1ccc(C(F)(F)F)cc1)c1ccccc1 (centres unmarked) [fluoxetine],mean change from baseline in total score (DISF interview),subjects with depression; females,−3.5
same,mean change from baseline in total score (DISF interview),subjects with depression; males,−4.4
same,mean change from baseline in total score (DISF interview),"[1]; females, switched from gepirone to fluoxetine, trial 134502",+0.9
same,mean change from baseline in total score (DISF interview),[1]; [4],−1.2
same,mean change from baseline in total score (DISF interview),"[1]; males, switched from gepirone to fluoxetine, trial 134502",−5.8
